Source: ChEMBL document CHEMBL1201862, “PubChem BioAssay data set” (2004)
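48-hour exposure; five concentrations; linearly interpolated endpoints. GI50 marks 50% less growth.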 Calls of active or inactive are those of the source. Rule as the data show it: active = GI50 up to about 1.1 µM and inactive = higher.

Experiments:
Experiment in all cases: NCI-60 cell line screen, 48 h
[1] = system: SF-539
[2] = system: HOP-62
[3] = system: IGROV-1
[4] = system: OVCAR-8
[5] = system: SN12C
[6] = system: NCI-H226
[7] = system: ACHN
[8] = system: U-251
[9] = system: EKVX
[10] = system: NCI-H23
[11] = system: OVCAR-5
[12] = system: DU-145
[13] = system: UO-31
[14] = system: 786-0
[15] = system: RPMI-8226
[16] = system: SK-MEL-2
[17] = system: UACC-257
[18] = system: MDA-MB-231
[19] = system: HCT-116
[20] = system: A498

O=[N+]([O-])c1cc([N+](=O)[O-])c(Nn2c3ccccc3c3ccccc32)c([N+](=O)[O-])c1
GI50 [1]: 2.12 µM (inactive) | GI50 [2]: 1.87 µM (inactive) | GI50 [3]: 2.18 µM (inactive) | GI50 [4]: 2.55 µM (inactive) | GI50 [5]: 1.79 µM (inactive) | GI50 [6]: 1.4 µM (inactive) | GI50 [7]: 1.2 µM (inactive) | GI50 [8]: 1.82 µM (inactive) | GI50 [9]: 1.64 µM (inactive) | GI50 [10]: 1.43 µM (inactive) | GI50 [11]: 4.63 µM (inactive) | GI50 [12]: 4.15 µM (inactive) | GI50 [13]: 2.07 µM (inactive) | GI50 [14]: 2.74 µM (inactive) | GI50 [15]: 0.65 µM (active)

COc1ccc2[nH]c3c(C)c4ncccc4c(C)c3c2c1
GI50 [1]: 4.73 µM (inactive) | GI50 [2]: 6.84 µM (inactive) | GI50 [16]: > 10 µM (inactive) | GI50 [17]: > 10 µM (inactive) | GI50 [3]: > 10 µM (inactive) | GI50 [4]: 3.73 µM (inactive) | GI50 [5]: 4.78 µM (inactive) | GI50 [6]: 4.41 µM (inactive) | GI50 [7]: 5.2 µM (inactive) | GI50 [8]: 8.43 µM (inactive) | GI50 [9]: 4.97 µM (inactive) | GI50 [10]: > 10 µM (inactive) | GI50 [11]: 5.61 µM (inactive) | GI50 [18]: > 10 µM (inactive) | GI50 [12]: 7.55 µM (inactive) | GI50 [19]: 3.4 µM (inactive) | GI50 [14]: 1.52 µM (inactive) | GI50 [15]: 3.44 µM (inactive)

CC(=O)NNc1nc(C)c(C(=O)NNC(=O)C(=O)Nc2c(Cl)cc([N+](=O)[O-])cc2Cl)s1
GI50 [1]: 24.2 µM (inactive) | GI50 [2]: 56.6 µM (inactive) | GI50 [16]: 43.5 µM (inactive) | GI50 [17]: 26.6 µM (inactive) | GI50 [20]: 21.6 µM (inactive) | GI50 [3]: 49.3 µM (inactive) | GI50 [4]: 34.1 µM (inactive) | GI50 [5]: 42.7 µM (inactive) | GI50 [6]: 24 µM (inactive) | GI50 [7]: 31.8 µM (inactive) | GI50 [8]: > 100 µM (inactive) | GI50 [9]: 44.2 µM (inactive) | GI50 [10]: 18.9 µM (inactive) | GI50 [11]: 27.2 µM (inactive) | GI50 [19]: 34.5 µM (inactive) | GI50 [13]: 27.4 µM (inactive) | GI50 [14]: 33 µM (inactive) | GI50 [15]: 44.7 µM (inactive)

CCOP(=O)(/C=C\n1ccc(N)nc1=O)OCC
GI50 [1]: > 100 µM (inactive) | GI50 [2]: > 100 µM (inactive) | GI50 [16]: > 100 µM (inactive) | GI50 [17]: > 100 µM (inactive) | GI50 [3]: > 100 µM (inactive) | GI50 [4]: > 100 µM (inactive) | GI50 [5]: > 100 µM (inactive) | GI50 [6]: > 100 µM (inactive) | GI50 [7]: > 100 µM (inactive) | GI50 [8]: > 100 µM (inactive) | GI50 [9]: > 100 µM (inactive) | GI50 [10]: > 100 µM (inactive) | GI50 [11]: > 100 µM (inactive) | GI50 [18]: > 100 µM (inactive) | GI50 [12]: > 100 µM (inactive) | GI50 [19]: > 100 µM (inactive) | GI50 [14]: > 100 µM (inactive) | GI50 [15]: > 100 µM (inactive)

Cc1c(-c2cc(-c3ccccc3)n[nH]c2=O)c2ccccc2n1C
GI50 [1]: > 100 µM (inactive) | GI50 [2]: > 100 µM (inactive) | GI50 [16]: > 100 µM (inactive) | GI50 [17]: > 100 µM (inactive) | GI50 [20]: > 100 µM (inactive) | GI50 [3]: > 100 µM (inactive) | GI50 [4]: > 100 µM (inactive) | GI50 [5]: > 100 µM (inactive) | GI50 [6]: > 100 µM (inactive) | GI50 [7]: > 100 µM (inactive) | GI50 [8]: > 100 µM (inactive) | GI50 [9]: > 100 µM (inactive) | GI50 [10]: > 100 µM (inactive) | GI50 [11]: > 100 µM (inactive) | GI50 [19]: > 100 µM (inactive) | GI50 [13]: > 100 µM (inactive) | GI50 [14]: > 100 µM (inactive) | GI50 [15]: 76.2 µM (inactive)

C=C1C(=O)O[C@H]2C1C[C@@H](O)[C@@]1(C)OC1CC[C@@]1(C)O[C@H]21 (some centres not stated)
GI50 [16]: 17.6 µM (inactive) | GI50 [17]: 19.5 µM (inactive) | GI50 [3]: > 10 µM (inactive) | GI50 [4]: 34.7 µM (inactive) | GI50 [5]: 20.1 µM (inactive) | GI50 [7]: 13.7 µM (inactive) | GI50 [8]: > 100 µM (inactive) | GI50 [9]: 15.8 µM (inactive) | GI50 [10]: 17 µM (inactive) | GI50 [11]: 28.7 µM (inactive) | GI50 [18]: 19.1 µM (inactive) | GI50 [12]: 36.6 µM (inactive) | GI50 [19]: 17.7 µM (inactive) | GI50 [13]: 17 µM (inactive) | GI50 [14]: 22.1 µM (inactive) | GI50 [15]: 8.95 µM (inactive)

O=C1C[C@@H]2[C@@H](C=CC23CC3)N1O
GI50 [1]: > 100 µM (inactive) | GI50 [2]: > 100 µM (inactive) | GI50 [16]: > 100 µM (inactive) | GI50 [17]: > 100 µM (inactive) | GI50 [20]: > 100 µM (inactive) | GI50 [3]: > 100 µM (inactive) | GI50 [4]: > 100 µM (inactive) | GI50 [5]: > 100 µM (inactive) | GI50 [6]: > 100 µM (inactive) | GI50 [8]: > 100 µM (inactive) | GI50 [9]: > 100 µM (inactive) | GI50 [10]: > 100 µM (inactive) | GI50 [11]: > 100 µM (inactive) | GI50 [19]: > 100 µM (inactive) | GI50 [13]: > 100 µM (inactive) | GI50 [14]: > 100 µM (inactive) | GI50 [15]: > 100 µM (inactive)

CCn1c(-c2ccc(OC)cc2)nc2c1C(=O)c1ccccc1C2=O
GI50 [1]: > 100 µM (inactive) | GI50 [2]: 59.6 µM (inactive) | GI50 [17]: > 100 µM (inactive) | GI50 [3]: > 100 µM (inactive) | GI50 [4]: > 100 µM (inactive) | GI50 [5]: > 100 µM (inactive) | GI50 [6]: 61.1 µM (inactive) | GI50 [7]: > 100 µM (inactive) | GI50 [8]: > 100 µM (inactive) | GI50 [9]: > 100 µM (inactive) | GI50 [10]: > 100 µM (inactive) | GI50 [11]: > 100 µM (inactive) | GI50 [18]: > 100 µM (inactive) | GI50 [12]: > 100 µM (inactive) | GI50 [19]: > 100 µM (inactive) | GI50 [14]: > 100 µM (inactive) | GI50 [15]: > 100 µM (inactive)
